Laboratory results: US20150105252A1, “SUBSTITUTED PYRAZOLES AS HERBICIDES” (E I DU PONT DE NEMOURS AND COMPANY, priority 2013, published 2015)

Legend:
southern sandbur = assay: Test F postemergence; assay type: in vivo, Cenchrus echinatus; conditions: scale 0 to 100
Description: (§1) Seeds of plant species selected from corn (Zea mays), soybean (Glycine max), velvetleaf (Abutilon theophrasti), lambsquarters (Chenopodium album), wild poinsettia (Euphorbia heterophylla), pigweed, palmer (palmer pigweed, Amaranthus palmeri), common waterhemp (Amaranthus rudis), surinam grass (Brachiaria decumbens), large crabgrass (Digitaria sanguinalis), crabgrass, Brazil (Brazilian crabgrass, Digitaria horizontalis), fall panicum (Panicum dichotomiflorum), giant foxtail (Setaria faberii), green foxtail (Setaria viridis), goosegrass (Eleusine indica), johnsongrass (Sorghum halepense), common ragweed (Ambrosia elation), barnyardgrass (Echinochloa crus-galli), southern sandbur (Cenchrus echinatus), arrowleaf sida (Sida rhombifolia), Italian ryegrass (Lolium multiflorum), dayflower, VA (Virginia (VA) dayflower, Commelina virginica), field bindweed (Convolvulus arvensis), cocklebur (common cocklebur, Xanthium strumarium), morningglory (Ipomoea coccinea), nightshade (eastern black nightshade, Solanum ptycanthum), kochia (Kochia scoparia), yellow nutsedge (Cyperus esculentus), and hairy beggarticks (Bidens pilosa), were planted into a silt loam soil and treated preemergence with test chemicals formulated in a non-phytotoxic solvent mixture which included a surfactant.
(§2) At the same time, plants from these crop and weed species and also horseweed (Canada horseweed, Conyza canadensis), smartweed (ladysthumb smartweed, Polygonum persicaria), waterhemp_RES1, (ALS & Triazine resistant common waterhemp, Amaranthus rudis), and waterhemp_RES2, (ALS & HPPD resistant common waterhemp, Amaranthus rudis) were treated with postemergence applications of test chemicals formulated in the same manner. Plants ranged in height from 2 to 18 cm for postemergence treatments (1- to 4-leaf stage). Treated plants and controls were maintained in a greenhouse for 14 to 21 days, after which time all species were compared to controls and visually evaluated. Plant response ratings, summarized in Table F, are based on a scale of 0 to 100 where 0 is no effect and 100 is complete control. A dash (-) response means no test result.

foxtail, green = assay: Test E preemergence; assay type: in vivo, Setaria viridis; conditions: 21 days, scale 0 to 100
Description: (§3) Seeds of plant species selected from bermudagrass (Cynodon dactylon), Surinam grass (Brachiaria decumbens), crabgrass, large (large crabgrass, Digitaria sanguinalis), crabgrass, naked (naked crabgrass, Digitaria nuda), foxtail, green (green foxtail, Setaria viridis), johnsongrass (Sorghum halepense), kochia (Kochia scoparia), morningglory (pitted morningglory, Ipomoea lacunosa), nutsedge, purple (purple nutsedge, Cyperus rotundus), ragweed (common ragweed, Ambrosia elation), mustard, black (black mustard, Brassica nigra), guineagrass (Panicum maximum), dallisgrass (Paspalum dilatatum), barnyardgrass (Echinochloa crus-galli), sandbur (southern sandbur, Cenchrus echinatus), sowthistle (common sowthistle, Sonchus oleraceous), ryegrass, Italian (Italian ryegrass, Lolium multiflorum), signalgrass (broadleaf signalgrass, Brachiaria platyphylla), dayflower, VA (Virginia (VA) dayflower, Commelina virginica), bluegrass (annual bluegrass, Poa annua), quackgrass (Elytrigia repens), mallow (common mallow, Malva sylvestris), buckwheat, wild (wild buckwheat, Polygonum convolvulus), leafy spurge (Euphorbia esula), common chickweed (Stellaria media), wild poinsettia (Euphorbia heterophylla), pigweed, palmer (palmer pigweed, Amaranthus palmeri), and pigweed (redroot pigweed, Amaranthus retroflexus) were planted into a blend of loam soil and sand and treated preemergence with test chemicals formulated in a non-phytotoxic solvent mixture which included a surfactant.
(§4) Treated plants and controls were maintained in a greenhouse for 21 days, after which time all species were compared to controls and visually evaluated. Plant response ratings, summarized in Table E, are based on a scale of 0 to 100 where 0 is no effect and 100 is complete control. A dash (-) response means no test result.

corn = assay: Test F postemergence; assay type: in vivo, Zea mays; conditions: scale 0 to 100
Description: as §1, §2

barnyardgrass = assay: Test F postemergence; assay type: in vivo, Echinochloa crus-galli; conditions: scale 0 to 100
Description: as §1, §2

dayflower, VA = assay: Test F postemergence; assay type: in vivo, Commelina virginica; conditions: scale 0 to 100
Description: as §1, §2

sandbur = assay: Test E preemergence; assay type: in vivo, Cenchrus echinatus; conditions: 21 days, scale 0 to 100
Description: as §3, §4

nutsedge, purple = assay: Test E preemergence; assay type: in vivo, Cyperus rotundus; conditions: 21 days, scale 0 to 100
Description: as §3, §4

smartweed = assay: Test F postemergence; assay type: in vivo, Polygonum persicaria; conditions: 500 g ai/ha, scale 0 to 100
Description: as §1, §2

sowthistle = assay: Test E preemergence; assay type: in vivo, Sonchus oleraceous; conditions: 21 days, scale 0 to 100
Description: as §3, §4

wild poinsettia = assay: Test E preemergence; assay type: in vivo, Euphorbia heterophylla; conditions: 21 days, scale 0 to 100
Description: as §3, §4

SMILES: CCCc1cc(C(=O)NCC(F)(F)F)nn1Cc1ccnc(C(F)(F)F)c1 [Compound 105]
- Plant response rating, Southern Sandbur (southern sandbur; Postemergence, 31 g ai/ha): 0
- Plant response rating, Southern Sandbur (southern sandbur; Postemergence, 125 g ai/ha): 30
- Plant response rating, Southern Sandbur (southern sandbur; Postemergence, 250 g ai/ha): 70
- Plant response rating, Southern Sandbur (southern sandbur; postemergence, 62 g ai/ha): 10
- Plant response rating, Southern Sandbur (southern sandbur; postemergence, 500 g ai/ha): 90
- Plant response rating, Foxtail, Green (foxtail, green; 16 g ai/ha): 95
- Plant response rating, Foxtail, Green (foxtail, green; 31 g ai/ha): 98
- Plant response rating, Foxtail, Green (foxtail, green; 62 g ai/ha): 100
- Plant response rating, Foxtail, Green (foxtail, green; 125 g ai/ha): 100
- Plant response rating, Foxtail, Green (foxtail, green; 250 g ai/ha): 100
- Plant response rating, Corn (corn; Postemergence, 31 g ai/ha): 10
- Plant response rating, Corn (corn; Postemergence, 125 g ai/ha): 40
- Plant response rating, Corn (corn; Postemergence, 250 g ai/ha): 80
- Plant response rating, Corn (corn; postemergence, 62 g ai/ha): 30
- Plant response rating, Barnyardgrass (barnyardgrass; Postemergence, 31 g ai/ha): 10
- Plant response rating, Barnyardgrass (barnyardgrass; Postemergence, 125 g ai/ha): 15
- Plant response rating, Barnyardgrass (barnyardgrass; Postemergence, 250 g ai/ha): 60
- Plant response rating, Barnyardgrass (barnyardgrass; postemergence, 62 g ai/ha): 5
- Plant response rating, Barnyardgrass (barnyardgrass; postemergence, 500 g ai/ha): 90
- Plant response rating, Dayflower, VA (dayflower, VA; Postemergence, 31 g ai/ha): 20
- Plant response rating, Dayflower, VA (dayflower, VA; Postemergence, 125 g ai/ha): 80
- Plant response rating, Dayflower, VA (dayflower, VA; Postemergence, 250 g ai/ha): 85
- Plant response rating, Dayflower, VA (dayflower, VA; postemergence, 62 g ai/ha): 50
- Plant response rating, Dayflower, VA (dayflower, VA; postemergence, 500 g ai/ha): 90
- Plant response rating, Sandbur (sandbur; 16 g ai/ha): 5
- Plant response rating, Sandbur (sandbur; 31 g ai/ha): 50
- Plant response rating, Sandbur (sandbur; 62 g ai/ha): 70
- Plant response rating, Sandbur (sandbur; 125 g ai/ha): 95
- Plant response rating, Sandbur (sandbur; 250 g ai/ha): 98
- Plant response rating, Nutsedge, Purple (nutsedge, purple; 16 g ai/ha): 40
- Plant response rating, Nutsedge, Purple (nutsedge, purple; 31 g ai/ha): 70
- Plant response rating, Nutsedge, Purple (nutsedge, purple; 62 g ai/ha): 85
- Plant response rating, Nutsedge, Purple (nutsedge, purple; 125 g ai/ha): 85
- Plant response rating, Nutsedge, Purple (nutsedge, purple; 250 g ai/ha): 95
- Plant response rating, Smartweed (smartweed): 100
- Plant response rating, Sowthistle (sowthistle; 16 g ai/ha): 100
- Plant response rating, Sowthistle (sowthistle; 31 g ai/ha): 100
- Plant response rating, Sowthistle (sowthistle; 62 g ai/ha): 100
- Plant response rating, Sowthistle (sowthistle; 125 g ai/ha): 100
- Plant response rating, Sowthistle (sowthistle; 250 g ai/ha): 100
- Plant response rating, Wild Poinsettia (wild poinsettia; 16 g ai/ha): 50
- Plant response rating, Wild Poinsettia (wild poinsettia; 31 g ai/ha): 80
- Plant response rating, Wild Poinsettia (wild poinsettia; 62 g ai/ha): 100
- Plant response rating, Wild Poinsettia (wild poinsettia; 125 g ai/ha): 100
- Plant response rating, Wild Poinsettia (wild poinsettia; 250 g ai/ha): 100

SMILES: CCOc1cc(C(=O)NC(C)C)nn1Cc1ccnc(C(F)(F)F)c1 [Compound 188]
- Plant response rating, Southern Sandbur (southern sandbur; Postemergence, 31 g ai/ha): 0
- Plant response rating, Southern Sandbur (southern sandbur; Postemergence, 125 g ai/ha): 50
- Plant response rating, Southern Sandbur (southern sandbur; Postemergence, 250 g ai/ha): 70
- Plant response rating, Southern Sandbur (southern sandbur; postemergence, 62 g ai/ha): 20
- Plant response rating, Southern Sandbur (southern sandbur; postemergence, 500 g ai/ha): 90
- Plant response rating, Corn (corn; Postemergence, 31 g ai/ha): 10
- Plant response rating, Corn (corn; Postemergence, 125 g ai/ha): 60
- Plant response rating, Corn (corn; Postemergence, 250 g ai/ha): 95
- Plant response rating, Corn (corn; postemergence, 62 g ai/ha): 20
- Plant response rating, Barnyardgrass (barnyardgrass; Postemergence, 31 g ai/ha): 0
- Plant response rating, Barnyardgrass (barnyardgrass; Postemergence, 125 g ai/ha): 50
- Plant response rating, Barnyardgrass (barnyardgrass; Postemergence, 250 g ai/ha): 60
- Plant response rating, Barnyardgrass (barnyardgrass; postemergence, 62 g ai/ha): 20
- Plant response rating, Barnyardgrass (barnyardgrass; postemergence, 500 g ai/ha): 95
- Plant response rating, Dayflower, VA (dayflower, VA; Postemergence, 31 g ai/ha): 40
- Plant response rating, Dayflower, VA (dayflower, VA; Postemergence, 125 g ai/ha): 70
- Plant response rating, Dayflower, VA (dayflower, VA; Postemergence, 250 g ai/ha): 90
- Plant response rating, Dayflower, VA (dayflower, VA; postemergence, 62 g ai/ha): 50
- Plant response rating, Dayflower, VA (dayflower, VA; postemergence, 500 g ai/ha): 90
- Plant response rating, Smartweed (smartweed): 95
